Experimental data reported in patent US20230248652A1, “BIODEGRADEABLE MULTI-CAVITY MICROPARTICLES AND THEIR USE IN TREATMENT” (OXFORD UNIVERSITY INNOVATION LIMITED, priority 2020, published 2023).

System: 3D foam cell spheroid
Assay: HIFU implantation of loaded mcPLGA MPs into 3D foam cell spheroids (fluorescence)
Type: cell-based, human
Settings: HIFU exposure, 1 mg/ml
Method: As the cells in the ex vivo porcine artery were considered non-viable, we have also tested the ability to deliver DAPI to viable cells using a 3D foam cell spheroid model (FIG. 13).
THP-1 cells, a human monocytic cell line (ATCC, Rockville, MD) were routinely cultured in Roswell Park Memorial Institute (RPMI) 1640 Medium supplemented with 100 IU/ml of penicillin, 100 µg/ml streptomycin, 2 mmol/l L-glutamine, 10% (vol/vol) FBS and incubated in a humidified atmosphere of 5% CO2 in an incubator at 37° C. The medium was replaced every 2-3 days by centrifuging these suspended cells at 125 g for 5 min. For differentiation of THP-1 monocytes into macrophages, THP-1 cells were seeded at a density of 7 × 10^5 cells/ml with differentiation medium, growth medium supplemented with 50 ng/mL phorbol 12-myristate 13-acetate (PMA), for 3 days to obtain macrophages. Subsequently, for foam cells induction, macrophages were incubated with 100 µg/ml oxLDL (Low Density Lipoprotein from Human Plasma, oxidized; Invitrogen,USA) in the differentiation medium for 2 days.
Foam cells were used to produce a three-dimensional (3D) foam cell spheroid model by modification of the hanging drop method. Single-cell suspensions were generated from trypsinized monolayers. […]
Fluorescence microscopy was used to analyze the distribution of mcPLGA MPs and the release of therapeutics (FIG. 27c). […]

## N=C(N)c1ccc(-c2cc3ccc(C(=N)N)cc3[nH]2)cc1 [DAPI]
  delivery of DAPI / particle distribution in foam cell spheroid: diffused through the membranes of the cells to stain the DNA of the foam cells
